Source: patent publication US5843889A, “Glycopeptide antibiotic derivatives” (Eli Lilly and Company, priority 1997, dated 1998)
Converted amounts (≈) assume the structure as drawn.

What was measured:
Test in all cases: MIC, standard broth micro-dilution assay
Type in all cases: cell-based
Entercoccus faecalis 276 = tested on: Entercoccus faecalis 276
Experimental: (§1) The formula I compounds have in vitro and in vivo activity against Gram-positive pathogenic bacteria. The MIC's were determined using a standard broth micro-dilution assay.

[1] = tested on: Entercoccus faecalis 2041
Experimental: as §1

[2] = tested on: Entercoccus gallinarum 245
Experimental: as §1

SMILES | MIC (Entercoccus faecalis 276) | MIC [1] | MIC [2]
CNC(CC(C)C)C(=O)NC1C(=O)NC(CC(N)=O)C(=O)NC2C(=O)NC3C(=O)NC(C(=O)NC(C(=O)O)c4cc(O)cc(O)c4-c4cc3ccc4O)C(OC3CC(C)(N)C(O)C(C)O3)c3ccc(c(Cl)c3)Oc3cc2cc(c3OC2OC(CO)C(O)C(O)C2OC2CC(C)(NCc3c4ccccc4c(Cl)c4ccccc34)C(O)C(C)O2)Oc2ccc(cc2Cl)C1O (stereo not shown) [Compound 18, 9-[10-chloro]anthranylmethyl] | 1 µg/mL (≈ 0.55 µM) | 0.25 µg/mL (≈ 0.138 µM) | 1 µg/mL (≈ 0.55 µM)
CNC(CC(C)C)C(=O)NC1C(=O)NC(CC(N)=O)C(=O)NC2C(=O)NC3C(=O)NC(C(=O)NC(C(=O)O)c4cc(O)cc(O)c4-c4cc3ccc4O)C(OC3CC(C)(N)C(O)C(C)O3)c3ccc(c(Cl)c3)Oc3cc2cc(c3OC2OC(CO)C(O)C(O)C2OC2CC(C)(NCC3CCC(Cc4ccccc4)CC3)C(O)C(C)O2)Oc2ccc(cc2Cl)C1O (stereo not shown) [Compound 241, 4-[benzyl]cyclohexylmethyl] | ≤ 0.06 µg/mL | ≤ 0.06 µg/mL | ≤ 0.06 µg/mL
CNC(CC(C)C)C(=O)NC1C(=O)NC(CC(N)=O)C(=O)NC2C(=O)NC3C(=O)NC(C(=O)NC(C(=O)O)c4cc(O)cc(O)c4-c4cc3ccc4O)C(OC3CC(C)(N)C(O)C(C)O3)c3ccc(c(Cl)c3)Oc3cc2cc(c3OC2OC(CO)C(O)C(O)C2OC2CC(C)(NCc3ccc(Cl)c(C(=O)c4ccccc4)c3Cl)C(O)C(C)O2)Oc2ccc(cc2Cl)C1O (stereo not shown) [Compound 133, 3-benzoyl-2,4-dichlorobenzyl] | 1 µg/mL (≈ 0.539 µM) | – | 2 µg/mL (≈ 1.08 µM)
CCc1ccc(-c2ccc(CNC3(C)CC(OC4C(Oc5c6cc7cc5Oc5ccc(cc5Cl)C(OC5CC(C)(N)C(O)C(C)O5)C5NC(=O)C(NC(=O)C7NC(=O)C(CC(N)=O)NC(=O)C(NC(=O)C(CC(C)C)NC)C(O)c7ccc(c(Cl)c7)O6)c6ccc(O)c(c6)-c6c(O)cc(O)cc6C(C(=O)O)NC5=O)OC(CO)C(O)C4O)OC(C)C3O)cc2)cc1 (stereo not shown) [Compound 90, 4-[4-ethylphenyl]benzyl] | 2 µg/mL (≈ 1.12 µM) | – | 2 µg/mL (≈ 1.12 µM)
C=CCCCCCCCCNC1(C)CC(OC2C(Oc3c4cc5cc3Oc3ccc(cc3Cl)C(OC3CC(C)(N)C(O)C(C)O3)C3NC(=O)C(NC(=O)C5NC(=O)C(CC(N)=O)NC(=O)C(NC(=O)C(CC(C)C)NC)C(O)c5ccc(c(Cl)c5)O4)c4ccc(O)c(c4)-c4c(O)cc(O)cc4C(C(=O)O)NC3=O)OC(CO)C(O)C2O)OC(C)C1O (stereo not shown) [Compound 214, 9-decenyl] | 0.25 µg/mL (≈ 0.144 µM) | – | 2 µg/mL (≈ 1.16 µM)
CNC(CC(C)C)C(=O)NC1C(=O)NC(CC(N)=O)C(=O)NC2C(=O)NC3C(=O)NC(C(=O)NC(C(=O)O)c4cc(O)cc(O)c4-c4cc3ccc4O)C(OC3CC(C)(N)C(O)C(C)O3)c3ccc(c(Cl)c3)Oc3cc2cc(c3OC2OC(CO)C(O)C(O)C2OC2CC(C)(NCCCCCCCCc3ccccc3)C(O)C(C)O2)Oc2ccc(cc2Cl)C1O (stereo not shown) [Compound 176, 8-phenyloctyl] | 2 µg/mL (≈ 1.12 µM) | – | 2 µg/mL (≈ 1.12 µM)
CNC(CC(C)C)C(=O)NC1C(=O)NC(CC(N)=O)C(=O)NC2C(=O)NC3C(=O)NC(C(=O)NC(C(=O)O)c4cc(O)cc(O)c4-c4cc3ccc4O)C(OC3CC(C)(N)C(O)C(C)O3)c3ccc(c(Cl)c3)Oc3cc2cc(c3OC2OC(CO)C(O)C(O)C2OC2CC(C)(NCCc3ccc(Oc4ccccc4)cc3)C(O)C(C)O2)Oc2ccc(cc2Cl)C1O (stereo not shown) [Compound 63, 4-phenoxyphenethyl] | 0.5 µg/mL (≈ 0.28 µM) | – | 8 µg/mL (≈ 4.47 µM)
CNC(CC(C)C)C(=O)NC1C(=O)NC(CC(N)=O)C(=O)NC2C(=O)NC3C(=O)NC(C(=O)NC(C(=O)O)c4cc(O)cc(O)c4-c4cc3ccc4O)C(OC3CC(C)(N)C(O)C(C)O3)c3ccc(c(Cl)c3)Oc3cc2cc(c3OC2OC(CO)C(O)C(O)C2OC2CC(C)(NCc3c4ccccc4cc4ccccc34)C(O)C(C)O2)Oc2ccc(cc2Cl)C1O (stereo not shown) [Compound 13, 9-anthranylmethyl] | 0.5 µg/mL (≈ 0.28 µM) | – | 0.25 µg/mL (≈ 0.14 µM)
CNC(CC(C)C)C(=O)NC1C(=O)NC(CC(N)=O)C(=O)NC2C(=O)NC3C(=O)NC(C(=O)NC(C(=O)O)c4cc(O)cc(O)c4-c4cc3ccc4O)C(OC3CC(C)(N)C(O)C(C)O3)c3ccc(c(Cl)c3)Oc3cc2cc(c3OC2OC(CO)C(O)C(O)C2OC2CC(C)(NCc3ccc(-c4ccccc4C)c(C)c3)C(O)C(C)O2)Oc2ccc(cc2Cl)C1O (stereo not shown) [Compound 237, 4-[2-methylphenyl]-3-methylbenzyl] | 1 µg/mL (≈ 0.56 µM) | – | 1 µg/mL (≈ 0.56 µM)
CNC(CC(C)C)C(=O)NC1C(=O)NC(CC(N)=O)C(=O)NC2C(=O)NC3C(=O)NC(C(=O)NC(C(=O)O)c4cc(O)cc(O)c4-c4cc3ccc4O)C(OC3CC(C)(N)C(O)C(C)O3)c3ccc(c(Cl)c3)Oc3cc2cc(c3OC2OC(CO)C(O)C(O)C2OC2CC(C)(NCc3ccc(OC(C)=O)cc3)C(O)C(C)O2)Oc2ccc(cc2Cl)C1O (stereo not shown) [Compound 138, 4-acetoxybenzyl] | ≤ 0.06 µg/mL | ≤ 0.06 µg/mL | –
CNC(CC(C)C)C(=O)NC1C(=O)NC(CC(N)=O)C(=O)NC2C(=O)NC3C(=O)NC(C(=O)NC(C(=O)O)c4cc(O)cc(O)c4-c4cc3ccc4O)C(OC3CC(C)(N)C(O)C(C)O3)c3ccc(c(Cl)c3)Oc3cc2cc(c3OC2OC(CO)C(O)C(O)C2OC2CC(C)(NCCc3cccc(OCc4ccccc4)c3)C(O)C(C)O2)Oc2ccc(cc2Cl)C1O (stereo not shown) [Compound 69, 3-benzyloxyphenethyl] | 0.5 µg/mL (≈ 0.277 µM) | – | 8 µg/mL (≈ 4.44 µM)
CNC(CC(C)C)C(=O)NC1C(=O)NC(CC(N)=O)C(=O)NC2C(=O)NC3C(=O)NC(C(=O)NC(C(=O)O)c4cc(O)cc(O)c4-c4cc3ccc4O)C(O)c3ccc(c(Cl)c3)Oc3cc2cc(c3OC2OC(CO)C(O)C(O)C2OC2CC(C)(NCc3ccc(-c4ccccc4)cc3)C(O)C(C)O2)Oc2ccc(cc2Cl)C1O (stereo not shown) [Compound 181, 4-phenylbenzyl] | 2 µg/mL (≈ 1.24 µM) | – | ≤ 0.06 µg/mL
CNC(CC(C)C)C(=O)NC1C(=O)NC(CC(N)=O)C(=O)NC2C(=O)NC3C(=O)NC(C(=O)NC(C(=O)O)c4cc(O)cc(O)c4-c4cc3ccc4O)C(OC3CC(C)(N)C(O)C(C)O3)c3ccc(c(Cl)c3)Oc3cc2cc(c3OC2OC(CO)C(O)C(O)C2OC2CC(C)(NCc3ccnc4ccccc34)C(O)C(C)O2)Oc2ccc(cc2Cl)C1O (stereo not shown) [Compound 27, 4-quinolylmethyl] | 0.5 µg/mL (≈ 0.288 µM) | – | 0.5 µg/mL (≈ 0.288 µM)
CNC(CC(C)C)C(=O)NC1C(=O)NC(CC(N)=O)C(=O)NC2C(=O)NC3C(=O)NC(C(=O)NC(C(=O)O)c4cc(O)cc(O)c4-c4cc3ccc4O)C(OC3CC(C)(N)C(O)C(C)O3)c3ccc(c(Cl)c3)Oc3cc2cc(c3OC2OC(CO)C(O)C(O)C2OC2CC(C)(NCc3ccc(N4CCCCC4C)cc3)C(O)C(C)O2)Oc2ccc(cc2Cl)C1O (stereo not shown) [Compound 135, 4-[2-methyl-1-piperidino]benzyl] | 0.5 µg/mL (≈ 0.281 µM) | – | 2 µg/mL (≈ 1.12 µM)
CNC(CC(C)C)C(=O)NC1C(=O)NC(CC(N)=O)C(=O)NC2C(=O)NC3C(=O)NC(C(=O)NC(C(=O)O)c4cc(O)cc(O)c4-c4cc3ccc4O)C(OC3CC(C)(N)C(O)C(C)O3)c3ccc(c(Cl)c3)Oc3cc2cc(c3OC2OC(CO)C(O)C(O)C2OC2CC(C)(NCc3ccc(-c4cccs4)cc3)C(O)C(C)O2)Oc2ccc(cc2Cl)C1O (stereo not shown) [Compound 218, 4-[2-thienyl]benzyl] | ≤ 0.06 µg/mL | – | ≤ 0.06 µg/mL
CNC(CC(C)C)C(=O)NC1C(=O)NC(CC(N)=O)C(=O)NC2C(=O)NC3C(=O)NC(C(=O)NC(C(=O)O)c4cc(O)cc(O)c4-c4cc3ccc4O)C(OC3CC(C)(N)C(O)C(C)O3)c3ccc(c(Cl)c3)Oc3cc2cc(c3OC2OC(CO)C(O)C(O)C2OC2CC(C)(NCC=Cc3ccccc3)C(O)C(C)O2)Oc2ccc(cc2Cl)C1O (stereo not drawn) [Compound 38, trans-cinnamyl] | 0.5 µg/mL (≈ 0.293 µM) | ≤ 0.06 µg/mL | –
CNC(CC(C)C)C(=O)NC1C(=O)NC(CC(N)=O)C(=O)NC2C(=O)NC3C(=O)NC(C(=O)NC(C(=O)O)c4cc(O)cc(O)c4-c4cc3ccc4O)C(OC3CC(C)(N)C(O)C(C)O3)c3ccc(c(Cl)c3)Oc3cc2cc(c3OC2OC(CO)C(O)C(O)C2OC2CC(C)(NCCc3ccc(Oc4ccccc4)cc3)C(O)C(C)O2)Oc2ccc(cc2Cl)C1O (stereo not shown) [Compound 33, 4-phenoxyphenethyl] | ≤ 0.06 µg/mL | ≤ 0.06 µg/mL | –
CC#CCCCCCCCCCCOc1ccc(CNC2(C)CC(OC3C(Oc4c5cc6cc4Oc4ccc(cc4Cl)C(OC4CC(C)(N)C(O)C(C)O4)C4NC(=O)C(NC(=O)C6NC(=O)C(CC(N)=O)NC(=O)C(NC(=O)C(CC(C)C)NC)C(O)c6ccc(c(Cl)c6)O5)c5ccc(O)c(c5)-c5c(O)cc(O)cc5C(C(=O)O)NC4=O)OC(CO)C(O)C3O)OC(C)C2O)cc1 (stereo not shown) [Compound 233, 4-[11-tridecynyloxy]benzyl] | 8 µg/mL (≈ 4.26 µM) | – | –
CNC(CC(C)C)C(=O)NC1C(=O)NC(CC(N)=O)C(=O)NC2C(=O)NC3C(=O)NC(C(=O)NC(C(=O)O)c4cc(O)cc(O)c4-c4cc3ccc4O)C(OC3CC(C)(N)C(O)C(C)O3)c3ccc(c(Cl)c3)Oc3cc2cc(c3OC2OC(CO)C(O)C(O)C2OC2CC(C)(NCc3ccc(OCCOC(C)(C)C)cc3)C(O)C(C)O2)Oc2ccc(cc2Cl)C1O (stereo not shown) [Compound 154, 4-[2-t-butoxyethoxy]benzyl] | 0.5 µg/mL (≈ 0.278 µM) | – | 4 µg/mL (≈ 2.22 µM)
CCCCCCCCC#CCCCCCCNC1(C)CC(OC2C(Oc3c4cc5cc3Oc3ccc(cc3Cl)C(OC3CC(C)(N)C(O)C(C)O3)C3NC(=O)C(NC(=O)C5NC(=O)C(CC(N)=O)NC(=O)C(NC(=O)C(CC(C)C)NC)C(O)c5ccc(c(Cl)c5)O4)c4ccc(O)c(c4)-c4c(O)cc(O)cc4C(C(=O)O)NC3=O)OC(CO)C(O)C2O)OC(C)C1O (stereo not shown) [Compound 207, 7-hexadecynyl] | 0.25 µg/mL (≈ 0.138 µM) | – | 1 µg/mL (≈ 0.552 µM)
CNC(CC(C)C)C(=O)NC1C(=O)NC(CC(N)=O)C(=O)NC2C(=O)NC3C(=O)NC(C(=O)NC(C(=O)O)c4cc(O)cc(O)c4-c4cc3ccc4O)C(OC3CC(C)(N)C(O)C(C)O3)c3ccc(c(Cl)c3)Oc3cc2cc(c3OC2OC(CO)C(O)C(O)C2OC2CC(C)(NCc3ccc4c(c3)CCO4)C(O)C(C)O2)Oc2ccc(cc2Cl)C1O (stereo not drawn) [Compound 82, S-[2,3-dihydrobenzfuryl]methyl] | ≤ 0.06 µg/mL | 0.5 µg/mL (≈ 0.29 µM) | –
